Species on record: Rattus norvegicus
Format: toxicity, organism-based, Sprague-Dawley
Conditions: in vivo, 24 h, time 1 day, vehicle 100 % SALINE; for ABSOLUTE EOSINOPHIL / ABSOLUTE LYMPHOCYTE / ABSOLUTE MONOCYTE / ABSOLUTE SEGMENTED NEUTROPHIL / BASOPHIL / EOSINOPHIL / ERYTHROCYTE COUNT / HEMATOCRIT / HEMOGLOBIN / LEUKOCYTE COUNT / LYMPHOCYTE / MEAN CORPUSCULAR HEMOGLOBIN / MEAN CORPUSCULAR HEMOGLOBIN CONCENTRATION / MEAN CORPUSCULAR VOLUME / MONOCYTE / NEUTROPHIL / NUCLEATED RED BLOOD CELLS / PLATELET COUNT / ABSOLUTE BASOPHIL: tissue Blood; for ALANINE AMINOTRANSFERASE / ALKALINE PHOSPHATASE / ASPARTATE AMINOTRANSFERASE / BLOOD UREA NITROGEN / CARBON DIOXIDE / CHLORIDE / CHOLESTEROL / CREATININE / GLUCOSE / LACTATE DEHYDROGENASE / LIPASE / PHOSPHORUS / POTASSIUM / SODIUM / TOTAL BILIRUBIN / TOTAL PROTEIN / URIC ACID / ALBUMIN / CREATINE PHOSPHOKINASE: tissue Plasma
[1] = ip, 0 mg/kg, vehicle control, route intraperitoneal, dose level Control
[2] = ip, 1 mg/kg, route intraperitoneal, dose level High
[3] = po, 0 mg/kg, vehicle control, route oral GAVAGE, dose level Control
[4] = po, […], route oral GAVAGE, dose 7.5 mg/Kg, dose level High

Description: DrugMatrix - Regimen: Single

CC[C@H]1CN2CCc3cc(OC)c(OC)cc3[C@@H]2C[C@@H]1C[C@H]1NCCc2cc(OC)c(OC)cc21 [EMETINE]
ABSOLUTE EOSINOPHIL [1]: 77.5 CELLS/uL
ABSOLUTE LYMPHOCYTE [1]: 12568.83 CELLS/uL
ABSOLUTE MONOCYTE [1]: 704.67 CELLS/uL
ABSOLUTE SEGMENTED NEUTROPHIL [1]: 2365.67 CELLS/uL
BASOPHIL [1]: 0%
EOSINOPHIL [1]: 0.5%
ERYTHROCYTE COUNT [1]: 5.83 x10E6/uL
HEMATOCRIT [1]: 36.08%
HEMOGLOBIN [1]: 13.22 G/DL
LEUKOCYTE COUNT [1]: 15.72 x10E3/uL
LYMPHOCYTE [1]: 80%
MEAN CORPUSCULAR HEMOGLOBIN [1]: 22.68 pg
MEAN CORPUSCULAR HEMOGLOBIN CONCENTRATION [1]: 36.63 G/DL
MEAN CORPUSCULAR VOLUME [1]: 61.88 fL
MONOCYTE [1]: 4.5%
NEUTROPHIL [1]: 15%
NUCLEATED RED BLOOD CELLS [1]: 0 /100WBC
PLATELET COUNT [1]: 1020.5 x10E3/uL
ALANINE AMINOTRANSFERASE [1]: 43.33 u/L
ALKALINE PHOSPHATASE [1]: 368 u/L
ASPARTATE AMINOTRANSFERASE [1]: 93 u/L
BLOOD UREA NITROGEN [1]: 12.33 mg/dL
CARBON DIOXIDE [1]: 27.17 mmol/L
CHLORIDE [1]: 99.5 MEQ/L
CHOLESTEROL [1]: 65.67 mg/dL
CREATININE [1]: 0.23 mg/dL
GLUCOSE [1]: 181.67 mg/dL
LACTATE DEHYDROGENASE [1]: 380.17 u/L
LIPASE [1]: 9.33 u/L
PHOSPHORUS [1]: 13.1 mg/dL
POTASSIUM [1]: 6.28 MEQ/L
SODIUM [1]: 143.03 MEQ/L
TOTAL BILIRUBIN [1]: 0.18 mg/dL
TOTAL PROTEIN [1]: 6.12 G/DL
URIC ACID [1]: 2.47 mg/dL
ABSOLUTE EOSINOPHIL [2]: 92 CELLS/uL
ABSOLUTE LYMPHOCYTE [2]: 11430 CELLS/uL
ABSOLUTE MONOCYTE [2]: 510 CELLS/uL
ABSOLUTE SEGMENTED NEUTROPHIL [2]: 1901.33 CELLS/uL
BASOPHIL [2]: 0%
EOSINOPHIL [2]: 0.67%
ERYTHROCYTE COUNT [2]: 5.8 x10E6/uL
HEMATOCRIT [2]: 35.23%
HEMOGLOBIN [2]: 12.63 G/DL
LEUKOCYTE COUNT [2]: 13.93 x10E3/uL
LYMPHOCYTE [2]: 82%
MEAN CORPUSCULAR HEMOGLOBIN [2]: 21.77 pg
MEAN CORPUSCULAR HEMOGLOBIN CONCENTRATION [2]: 35.87 G/DL
MEAN CORPUSCULAR VOLUME [2]: 60.83 fL
MONOCYTE [2]: 3.67%
NEUTROPHIL [2]: 13.67%
NUCLEATED RED BLOOD CELLS [2]: 0 /100WBC
PLATELET COUNT [2]: 1110.67 x10E3/uL
ALANINE AMINOTRANSFERASE [2]: 45.67 u/L
ALKALINE PHOSPHATASE [2]: 344 u/L
ASPARTATE AMINOTRANSFERASE [2]: 124 u/L
BLOOD UREA NITROGEN [2]: 13.33 mg/dL
CARBON DIOXIDE [2]: 27 mmol/L
CHLORIDE [2]: 100 MEQ/L
CHOLESTEROL [2]: 66.67 mg/dL
CREATININE [2]: 0.22 mg/dL
GLUCOSE [2]: 182 mg/dL
LACTATE DEHYDROGENASE [2]: 467.33 u/L
LIPASE [2]: 9.33 u/L
PHOSPHORUS [2]: 14.17 mg/dL
POTASSIUM [2]: 6.56 MEQ/L
SODIUM [2]: 143.9 MEQ/L
TOTAL BILIRUBIN [2]: 0.17 mg/dL
TOTAL PROTEIN [2]: 6.07 G/DL
URIC ACID [2]: 2.17 mg/dL

Nc1ncnc2c1ncn2[C@@H]1O[C@H](CO)[C@@H](O)[C@H]1F [2'-BETA-FLUORO-2',3'-DEOXYADENOSINE]
ABSOLUTE BASOPHIL [3]: 73.3 cells/µL
ABSOLUTE EOSINOPHIL [3]: 86.7 cells/µL
ABSOLUTE LYMPHOCYTE [3]: 8400 cells/µL
ABSOLUTE MONOCYTE [3]: 350 cells/µL
BASOPHIL [3]: 0.63%
EOSINOPHIL [3]: 0.73%
ERYTHROCYTE COUNT [3]: 6.55 x10E6/uL
HEMATOCRIT [3]: 42.83%
HEMOGLOBIN [3]: 13.6 G/DL
LEUKOCYTE COUNT [3]: 11.33 x10E3/uL
LYMPHOCYTE [3]: 74.77%
MEAN CORPUSCULAR HEMOGLOBIN [3]: 20.77 pg
MEAN CORPUSCULAR HEMOGLOBIN CONCENTRATION [3]: 31.7 G/DL
MEAN CORPUSCULAR VOLUME [3]: 65.53 fL
MONOCYTE [3]: 3%
NEUTROPHIL [3]: 20.2%
PLATELET COUNT [3]: 1394.33 x10E3/uL
ALANINE AMINOTRANSFERASE [3]: 34 u/L
ALBUMIN [3]: 4.03 G/DL
ALKALINE PHOSPHATASE [3]: 345.33 u/L
ASPARTATE AMINOTRANSFERASE [3]: 69.67 u/L
BLOOD UREA NITROGEN [3]: 14.33 mg/dL
CARBON DIOXIDE [3]: 46 mmol/L
CHLORIDE [3]: 102.67 MEQ/L
CHOLESTEROL [3]: 85 mg/dL
CREATINE PHOSPHOKINASE [3]: 292 u/L
CREATININE [3]: 0.2 mg/dL
GLUCOSE [3]: 168 mg/dL
LACTATE DEHYDROGENASE [3]: 114.33 u/L
LIPASE [3]: 13 u/L
PHOSPHORUS [3]: 11.2 mg/dL
POTASSIUM [3]: 7.07 MEQ/L
SODIUM [3]: 144.67 MEQ/L
TOTAL BILIRUBIN [3]: 0.27 mg/dL
TOTAL PROTEIN [3]: 6.57 G/DL
URIC ACID [3]: 0.73 mg/dL
ABSOLUTE BASOPHIL [4]: 36.7 cells/µL
ABSOLUTE EOSINOPHIL [4]: 40 cells/µL
ABSOLUTE LYMPHOCYTE [4]: 7660 cells/µL
ABSOLUTE MONOCYTE [4]: 240 cells/µL
BASOPHIL [4]: 0.37%
EOSINOPHIL [4]: 0.43%
ERYTHROCYTE COUNT [4]: 7.06 x10E6/uL
HEMATOCRIT [4]: 46.1%
HEMOGLOBIN [4]: 14.4 G/DL
LEUKOCYTE COUNT [4]: 9.56 x10E3/uL
LYMPHOCYTE [4]: 79.8%
MEAN CORPUSCULAR HEMOGLOBIN [4]: 20.4 pg
MEAN CORPUSCULAR HEMOGLOBIN CONCENTRATION [4]: 31.2 G/DL
MEAN CORPUSCULAR VOLUME [4]: 65.37 fL
MONOCYTE [4]: 2.57%
NEUTROPHIL [4]: 16.23%
PLATELET COUNT [4]: 1451.67 x10E3/uL
ALANINE AMINOTRANSFERASE [4]: 40.67 u/L
ALBUMIN [4]: 4.03 G/DL
ALKALINE PHOSPHATASE [4]: 348 u/L
ASPARTATE AMINOTRANSFERASE [4]: 71.67 u/L
BLOOD UREA NITROGEN [4]: 15 mg/dL
CARBON DIOXIDE [4]: 42.67 mmol/L
CHLORIDE [4]: 103.33 MEQ/L
CHOLESTEROL [4]: 98.67 mg/dL
CREATINE PHOSPHOKINASE [4]: 439.67 u/L
CREATININE [4]: 0.3 mg/dL
GLUCOSE [4]: 185.67 mg/dL
LACTATE DEHYDROGENASE [4]: 90 u/L
LIPASE [4]: 12 u/L
PHOSPHORUS [4]: 11.67 mg/dL
POTASSIUM [4]: 6.3 MEQ/L
SODIUM [4]: 146 MEQ/L
TOTAL BILIRUBIN [4]: 0.27 mg/dL
TOTAL PROTEIN [4]: 6.7 G/DL
URIC ACID [4]: 0.97 mg/dL

Source: ChEMBL document CHEMBL3885881, “DrugMatrix”
